Values of other authors in US6342251B1, “Compositions for nasal administration” (West Pharmaceutical Services Drug Delivery & Clinical …, priority 1997, dated 2002).

Assays:
[1] = patients, erectile dysfunction
[2] = Parkinson's disease

Compound: CN1CCc2cccc3c2[C@H]1Cc1ccc(O)c(O)c1-3 [apomorphine, (6aR)-5,6,6a, 7-tetrahydro-6-methyl-4H-dibenzo(d, e, g) quinoline-10, 11-diol hemihydrate]
- side effects after nasal administration [1]: unacceptable side effects such as yawning, nausea, vomiting, dizziness, blurred vision, diaphoresis, pallor and mild hypertension
- local reactions after intranasal administration [2]: transient nasal blockage and a burning sensation
